Consider eleven compounds from paper PMC6525071 (Cell chemical biology, 2019).

In data set [1] the test system is SUDHL6 xenograft tumor tissue. In words: Immunofluorescence on frozen tumor sections from efficacy study. The format is in vivo, mouse.
The next data set deals with RIVA. In words: DLBCL cell line sensitivity to IKE, Cell Titer-Glo viability. It counts as cell-based. Particulars: read-out: cell line sensitivity class (IC50), IKE 24 hours. (In ATP-based viability assays light output follows the ATP content of the culture.)
The next data set deals with HBL1. The description is as above. The format is cell-based. Particulars: read-out: cell line sensitivity class (IC50), HBL1, IKE 24 hours.
Data set [2] has as its system SUDHL-6 cells. In words: Immunofluorescence of dihydropyridine-MDA-lysine adduct in cells. It counts as cell-based. Particulars: IKE treatment.
The subject of a further data set is cell lines. Particulars: ref Larraufie et al., 2015, cited from earlier work.
Data set [3] deals with SUDHL-6 cells. In words: RT-qPCR gene expression in cells. The format is cell-based. Particulars: for effect of co-treatment on IKE-induced upregulation of lipid metabolism genes: 10 μM co-treatment with 500 nM IKE. On the technique in general: In qPCR the cycle at which signal appears reflects the starting amount.
For the next data set, the system named is LY7. Briefly: DLBCL cell line sensitivity to IKE, Cell Titer-Glo viability. It counts as cell-based. Particulars: read-out: cell line sensitivity class (IC50), LY7, IKE 24 hours.
Data set [4] has as its system SUDHL-6 cells. In words: Reduced glutathione measurement in cells. It counts as cell-based.
Data set [5] deals with SUDHL6 xenograft tumor tissue. In words: GSH in tumor tissue after a single IKE dose. The format is in vivo, mouse. Particulars: single dose 50 mg/kg IKE IP, starting at 4 hours.
Data set [6] relates to SUDHL6 xenograft tumor tissue. In words: TBARS assay on tumor tissue from efficacy study. It counts as in vivo, mouse.
For another data set, the system named is LY8. In words: DLBCL cell line sensitivity to IKE, Cell Titer-Glo viability. The conditions noted are these: read-out: cell line sensitivity class (IC50), LY8, IKE 24 hours. The format is cell-based.
Data set [7] has as its system SUDHL6 xenograft tumor tissue. In words: RT-qPCR in tumor tissue after a single IKE dose. It counts as in vivo, mouse. The conditions noted are these: single dose 50 mg/kg IKE, starting at 3 h.
Another data set concerns U937. Briefly: DLBCL cell line sensitivity to IKE, Cell Titer-Glo viability. The format is cell-based. Particulars: read-out: cell line sensitivity class (IC50), U937, IKE 24 hours.
Data set [8] can be described thus: Mouse weight during efficacy study. The format is in vivo. The conditions noted are these: starting from day 9.
Data set [9] has as its system SUDHL-6 cells. Briefly: Lipid ROS by flow cytometry with C11-BODIPY. It counts as cell-based.
The conditions of data set [10]: ref Larraufie et al., 2015; cited from earlier work.
The next data set has as its system caspase-3. In words: Caspase-3 western blot on tumor tissue. The format is in vivo, mouse. The conditions noted are these: upon IKE treatment, efficacy study. On the technique in general: Immunoblotting shows a protein as a band on a membrane.
Data set [11] is described as follows: Pharmacokinetic analysis in NCG mice bearing SUDHL6 xenografts. It counts as in vivo, mouse.
Data set [12] is described as follows: Pharmacokinetic analysis in mice with three administration routes. The format is in vivo, mouse. Particulars: single dose IP, IV, PO, NOD/SCID mice, 5% DMSO in HBSS at pH 4.
The subject of data set [13] is SUDHL6 cells. In words: Untargeted lipidomics. Particulars: for effect of co-treatment on IKE-induced lipidomic changes: 10 μM co-treatment with 500 nM IKE. It counts as cell-based.
The subject of another data set is DLBCL cell lines. Briefly: Rescue of IKE-induced cell death by co-treatment with ferroptosis inhibitors. It counts as cell-based.
Another data set deals with GSH. Particulars: ref Narang et al., 2007; Lo et al., 2010; cited from earlier work.
For another data set, the system named is cells. In words: Cell survival test of free fatty acids in the presence or absence of IKE. Particulars: for toxicity of free fatty acid to cells: high concentration (100 μM); for effect of free fatty acid on ferroptosis: 10 μM, in the presence of IKE. It counts as cell-based.
Data set [14] has as its system SUDHL6 cells. In words: IKE PEG-PLGA cellular activity, CellTiter-Glo viability.
[15] abbreviates: IP injection, SUDHL6 NCG xenograft mice.
[16] abbreviates: single dose 50 mg/kg IP, SUDHL6-xenograft-bearing NCG mice.
[17] abbreviates: 10 μM fer-1 co-treatment with 500 nM IKE.
[18] abbreviates: 10 μM fer-1 with 500 nM IKE, 6 hours, SUDHL6 cells.

Bounds are passed on as bounds.

By IC50 is commonly meant the concentration that inhibits the measured activity by half. Consider `CC(C)Oc1ccc(C(=O)Cn2ccnc2)cc1-n1c(CN2CCN(C(=O)COc3ccc(Cl)cc3)CC2)nc2ccccc2c1=O` [IKE, imidazole ketone erastin], for which, in [1] (IKE 23 mg/kg daily for 14 days), the “increase in 8-OH-dG intensity in tumor sections” value was 1.8 fold, the “increase in COX-2 intensity in tumor sections” value came out at 2.0 fold and the “increase in MDA intensity in tumor sections” value came out at 1.8 fold. In [1] (IKE 40 mg/kg daily for 14 days), the “increase in 8-OH-dG intensity in tumor sections” value came out at 2.2 fold, the “increase in COX-2 intensity in tumor sections” value is given as 2.8 fold and the “increase in MDA intensity in tumor sections” value is given as 2.0 fold. In the data set with RIVA, the IC50 lay in the range of 100 to 10000 nM. The IC50 in the data set on HBL1 fell in the range of 100 to 10000 nM. Further, the dihydropyridine-MDA-lysine-adduct abundance result in the data set on SUDHL-6 cells [2] is “increased”. In the data set on cell lines (in some cell lines), the “potency improvement comparing to erastin” value is listed as > 100 x. In the data set on cell lines, the potency entry is “nanomolar”. For the same compound, the “GPX4, CBS and ACSL4 expression” value in the data set with SUDHL-6 cells [3] (IKE treatment, data not shown) is given as “not upregulated”. In the data set with SUDHL-6 cells [3] (SUDHL-6 cells, 500 nM IKE), the “SLC7A11, PTGS2 and CHAC1 expression” value was “significantly increased”. The half-maximal inhibitory concentration (IC50) in the data set with LY7 was > 10000 nM. For the same compound, the “cellular level of reduced glutathione (GSH)” value in the data set on SUDHL-6 cells [4] (SUDHL6 cells, different concentrations of IKE, 24 hours) was “dose-dependent GSH depletion”. Also, in the data set with SUDHL-6 cells [4] (read-out: IC50 of GSH depletion, SUDHL-6 cells, 24 h), the IC50 was found to be 34 nM. Moreover, in [5], the “GSH depletion in tumor tissue” value is reported as “over 50%”. In addition, the “MDA increase (TBARS, MDA-TBA adduct fluorescence)” value in data set [6] (IKE 23 mg/kg) is recorded as 1.4 fold. Besides, the “MDA increase (TBARS, MDA-TBA adduct fluorescence)” value in data set [6] (IKE 40 mg/kg) is listed as 1.8 fold. Further, the concentration for half-maximal inhibition (IC50) with LY8 was < 100 nM. Also, in data set [7], the “CHAC1 mRNA upregulation in tumor” value is reported as 2 fold, the “PTGS2 mRNA upregulation in tumor” value is 3–5 fold and the “SLC7A11 mRNA upregulation in tumor” value is recorded as 3–5 fold. Besides, the IC50 with U937 is > 10000 nM. In addition, the mouse weight entry in data set [8] (IKE 23 mg/kg daily) is on record as “weight loss”. Besides, in data set [8] (IKE 40 mg/kg daily), the mouse weight entry is given as “weight loss”. The “lipid ROS (C11-BODIPY)” value in the data set with SUDHL-6 cells [9] (different concentrations of IKE) was “dose-dependent increase”. Moreover, the metabolic stability result in data set [10] was “high”. Also, the “caspase-3 activity in tumor tissues” value in the data set on caspase-3 was “no increase in caspase-3 activity”. Moreover, in [11] (setting [15]), the T1/2 plasma is recorded as 1.83 h and the T1/2 tumor is recorded as 3.50 h. Also, in data set [11] (setting [16]), the highest plasma concentration was 5.2 µg/mL, the highest tumor accumulation was 2.5 µg/mL, the “time of highest plasma concentration” value is listed as 1.35 h and the “time of highest tumor accumulation” value turned out to be 3.30 h. Besides, the “comparison of dosage routes by IKE concentration over eight hours” value in data set [12] was “IP to be the most effective and practical means”.
As to `CC(=O)N(O)CCCCCNC(=O)CCC(=O)N(O)CCCCCNC(=O)CCC(=O)N(O)CCCCCN` [DFO, deferoxamine], the “effect of co-treatment on IKE-induced lipidomic changes” value in the data set with SUDHL6 cells [13] is “only partially eliminated lipidomic changes”. In the data set with DLBCL cell lines (in culture), the “effect of DFO co-treatment on IKE-induced cell death” value is “inhibited IKE-induced cell death”.
With `O=C(O)c1cc(/N=N/c2ccc(S(=O)(=O)Nc3ccccn3)cc2)ccc1O` [sulfasalazine], the “IC50 for GSH depletion” value in the data set on GSH is reported as “millimolar range”.
As to `CC/C=C\C/C=C\C/C=C\C/C=C\C/C=C\CCCC(=O)O` [eicosapentaenoic acid], the “toxicity of free fatty acid to cells” value in the data set on cells is “toxic to cells”.
On to `CCCCCCCC/C=C\CCCCCCCC(=O)O` [oleic acid], for which the “effect of free fatty acid on ferroptosis” value in the data set with cells is on record as “protected against ferroptosis”.
The same measure, in the same setting: in the case of `CCCCCC/C=C\CCCCCCCC(=O)O` [palmitoleic acid] it was “protected against ferroptosis”.
As for `CCOC(=O)c1ccc(NC2CCCCC2)c(N)c1` [fer-1, ferrostatin-1], the “effect of fer-1 co-treatment on cell death induced by IKE and IKE PEG-PLGA NPs” value in the data set with SUDHL6 cells [14] was “rescued cell death”. In addition, in the data set with SUDHL6 cells [13] (setting [17]), the MAG lipids entry is “decreased” and the TAG lipids entry is recorded as “significantly increased”. Further, in the data set on SUDHL-6 cells [3] (SUDHL6 cells), the “effect of co-treatment on IKE-induced upregulation of lipid metabolism genes” value is given as “partially reversed”. Further, in the data set on SUDHL-6 cells [3] (setting [18]), the “effect of co-treatment on IKE-induced CHAC1 upregulation” value was “did not inhibit CHAC1 upregulation” and the “effect of co-treatment on IKE-induced PTGS2 upregulation” value is recorded as “inhibited PTGS2 upregulation”. In addition, the “effect of fer-1 co-treatment on cell death induced by IKE” value with DLBCL cell lines (DLBCL cell lines) is recorded as “rescued cell death”. Moreover, the “effect of co-treatment on IKE-induced lipid ROS signal” value with SUDHL-6 cells [9] (10 μM fer-1 co-treatment) is on record as “inhibited this signal”.
In the case of `CCCCC/C=C\C/C=C\C/C=C\CCCCC(=O)O` [γ-linolenic acid], the “toxicity of free fatty acid to cells” value in the data set on cells is recorded as “toxic to cells”.
Still for that read-out and setting: next, `CCCCC/C=C\C/C=C\C/C=C\C/C=C\CCCC(=O)O` [arachidonic acid]: “toxic to cells”.
Consider `CCOc1ccccc1-n1c(C(C)N2CCN(C(=O)COc3ccc(Cl)cc3)CC2)nc2ccccc2c1=O` (stereo not drawn) [erastin, reference compound], for which the metabolic stability entry in data set [10] is given as “metabolically labile”.
As to `OCCS` [β-ME, β-mercaptoethanol], the “effect of co-treatment on IKE-induced lipidomic changes” value in the data set on SUDHL6 cells [13] is “reversed these effects”. Also, in the data set on SUDHL-6 cells [3] (SUDHL6 cells), the “effect of co-treatment on IKE-induced upregulation of lipid metabolism genes” value is “partially reversed”. The “effect of co-treatment on IKE-induced upregulation of SLC7A11, PTGS2 and CHAC1” value with SUDHL-6 cells [3] (10 μM β-ME with 500 nM IKE, 6 hours, SUDHL6 cells) was “prevented”. Further, in the data set on SUDHL-6 cells [4] (10 μM β-ME co-treatment, SUDHL6 cells, 24 hours), the “effect of co-treatment on IKE-induced GSH depletion” value was “reversed”.
